In general, IC50 refers to the concentration that inhibits the measured activity by half. The pIC50 is −log10 of the IC50, conventionally taken in molar units.

pIC50: −log10 of the molar value.

The target of one test is T1, human CCR6 (Homo sapiens, UniProt P51684).
T1 construct: expressed in transfected cells; host or cells: HEK-293
T1 sequence (P51684 1-374): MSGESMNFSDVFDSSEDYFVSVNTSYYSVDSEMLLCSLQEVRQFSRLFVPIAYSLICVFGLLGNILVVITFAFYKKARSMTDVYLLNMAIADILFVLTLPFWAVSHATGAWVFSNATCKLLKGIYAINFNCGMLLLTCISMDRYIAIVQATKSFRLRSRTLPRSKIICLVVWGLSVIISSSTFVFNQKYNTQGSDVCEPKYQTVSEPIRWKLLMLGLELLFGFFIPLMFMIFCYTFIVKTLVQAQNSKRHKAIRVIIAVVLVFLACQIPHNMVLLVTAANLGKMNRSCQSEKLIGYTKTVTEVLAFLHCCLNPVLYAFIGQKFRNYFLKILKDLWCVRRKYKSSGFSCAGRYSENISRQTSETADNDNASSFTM
The experiment in a line: FLIPR assay (inhibition of CCL20-induced calcium signal). Particulars: FLIPR IC50 (nM), HEK-293 cells expressing human CCR6; mean values where determined several times. Type of test: cell-based. An outline of the steps:
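Dye-loaded HEK-293 cells expressing human CCR6 were preincubated with compound for 30 min at room temperature in the dark, then challenged with 10 nM CCL20 (final). Fluorescence was tracked on FLIPR, and baseline-subtracted peak emission over base after agonist addition gave inhibition dose-response curves for IC50.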
On to `CCc1ccc([C@](O)(c2cncc(N3CC4CC(C3)O4)c2)C2(C)CN(C)C2)cc1` [Example 243], for which the IC50 came to 211 nM.

The test is the same for the next values; noted with them: HEK-293 cells expressing human CCR6; mean values where determined several times; read-out: FLIPR IC50.
As for `COCCC1CCN(c2cncc([C@@](O)(c3ccc(C(C)C)cc3)C3(C)CN(C)C3)c2)C1=O` (stereo partly shown) [Example 220], the pIC50 is 6.67.
Consider `COCCC1CC(=O)N(c2cncc([C@@](O)(c3ccc(C(C)C)cc3)C3(C)CN(C)C3)c2)C1` (stereo partly shown) [Example 221], for which the pIC50 was 6.46.
For the compound `CC(C)c1ccc([C@](O)(c2cnnc(N3CCCC3=O)c2)C2(C)CN(C)C2)cc1` [Example 222, 1-{5-[(R)-(1,3-Dimethyl-azetidin-3-yl)-hydroxy-(4-isopropyl-phenyl)-methyl]-pyridazin-3-yl}-pyrrolidin-2-one], the pIC50 is 6.79.
Still for that read-out and setting: then `CC(C)c1ccc(C(O)(c2cncc(N3CC[C@H](C(C)C)C3)c2)C2(C)CN(C)C2)cc1` (stereo partly drawn) [Example 223, (1,3-Dimethyl-azetidin-3-yl)-(4-isopropyl-phenyl)-[5-((R)-3-isopropyl-pyrrolidin-1-yl)-pyridin-3-yl]-methanol], with 7.54; and `CC(C)c1ccc([C@](O)(c2cncc(N3C[C@@H](C)O[C@@H](C)C3)c2)C2(C)CN(C)C2)cc1` [Example 224], with 7.31.
On to `CC(C)c1ccc([C@](O)(c2cncc(N3C[C@H](C)O[C@@H](C)C3)c2)C2(C)CN(C)C2)cc1` [Example 228], for which the pIC50 was 7.35.
For `CC(C)c1ccc([C@](O)(c2cncc(N3C[C@@H](C)O[C@H](C)C3)c2)C2(C)CN(C)C2)cc1` [Example 229], the pIC50 is 7.23.
`Cc1noc(C2CCN(c3cncc([C@@](O)(c4ccc(C(C)C)cc4)C4(C)CN(C)C4)c3)C2)n1` (stereo partly shown) [Example 230]: the pIC50 was 7.44.
For the compound `Cc1csc(C2CCN(c3cncc([C@@](O)(c4ccc(C(C)C)cc4)C4(C)CN(C)C4)c3)C2)n1` (stereo partly shown) [Example 231], the pIC50 was 7.83.
As for `CC(C)c1ccc([C@](O)(c2cncc(N3CCC(c4ccccc4)C3)c2)C2(C)CN(C)C2)cc1` (stereo partly shown) [Example 232], the pIC50 was 7.33.
For the compound `CC(C)c1ccc([C@](O)(c2cncc(N3CCC(C)(C)C3)c2)C2(C)CN(C)C2)cc1` [Example 233], the pIC50 is 7.53.
Still for that read-out and setting: then `CC(C)c1ccc([C@](O)(c2cncc(N3C[C@@H]4C[C@H]3CO4)c2)C2(C)CN(C)C2)cc1` [Example 234], with 6.91; and `CC(C)c1ccc([C@](O)(c2cncc(N3CC(F)(F)OC(F)(F)C3)c2)C2(C)CN(C)C2)cc1` [Example 235], with 7.63; and `COC[C@H]1CN(c2cncc([C@@](O)(c3ccc(C(C)C)cc3)C3(C)CN(C)C3)c2)CCO1` [Example 236], with 6.68.
For `COC[C@@H]1CN(c2cncc([C@@](O)(c3ccc(C(C)C)cc3)C3(C)CN(C)C3)c2)CCO1` [Example 237], the pIC50 was 6.66.
`CC(C)c1ccc([C@](O)(c2cncc(N3CCC(C(F)(F)F)C3)c2)C2(C)CN(C)C2)cc1` (stereo partly shown) [Example 238]: the pIC50 was 7.65.
Take `CC(C)c1ccc([C@](O)(c2cncc(N3C[C@H]4C[C@@H]3CO4)c2)C2(C)CN(C)C2)cc1` [Example 239]: the pIC50 was 6.55.
Consider `CC(C)c1ccc([C@](O)(c2cncc(N3C[C@H]4CC[C@@H](C3)O4)c2)C2(C)CN(C)C2)cc1` [Example 240], for which the pIC50 is 7.08.
As for `CN1CC(C)([C@](O)(c2ccc(C3(C(F)(F)F)CC3)cc2)c2cncc(N3C[C@@H]4C[C@H]3CO4)c2)C1` [Example 241], the pIC50 was 6.89.
For `CCc1ccc([C@](O)(c2cncc(N3CCCC3)c2)C2(C)CN(C)C2)cc1` [Example 242], the pIC50 is 7.66.
Same read-out and setting: the result for `CCc1ccc([C@](O)(c2cncc(N3C[C@@H]4C[C@H]3CO4)c2)C2(C)CN(C)C2)cc1` [Example 244] reads 6.56; that for `CC(C)c1ccc([C@](O)(c2cncc(OCc3ccccc3)c2)C2(C)CN(C)C2)cc1` [Example 245, (R)-(5-Benzyloxy-pyridin-3-yl)-(1,3-dimethyl-azetidin-3-yl)-(4-isopropyl-phenyl)-methanol], 7.59; that for `CC(C)c1ccc(C(O)(c2cncc(OCCc3ccccn3)c2)C2(C)CN(C)C2)cc1` (stereo not shown) [Example 246, (1,3-Dimethyl-azetidin-3-yl)-(4-isopropyl-phenyl)-[5-(2-pyridin-2-yl-ethoxy)-pyridin-3-yl]-methanol], 7.48.
For `COCCOc1cncc(C(O)(c2ccc(C(C)C)cc2)C2(C)CN(C)C2)c1` (stereo not shown) [Example 247], the negative logarithm of the IC50 (pIC50) is 6.60.
Same read-out and setting: then `CC(C)c1ccc(C(O)(c2cncc(OCC3COC3)c2)C2(C)CN(C)C2)cc1` (stereo not shown) [Example 248], with 6.61; and `CC(C)c1ccc([C@](O)(c2cncc(OCCCO)c2)C2(C)CN(C)C2)cc1` [Example 249], with 7.11.
For the compound `CC(C)Oc1cncc([C@@](O)(c2ccc(C(C)C)cc2)C2(C)CN(C)C2)c1` [Example 250], the pIC50 was 7.96.
Consider `CC(C)c1ccc([C@](O)(c2cncc(OC3CCCCC3)c2)C2(C)CN(C)C2)cc1` [Example 251], for which the pIC50 was 8.08.
Still for that read-out and setting: the result for `CC(C)c1ccc([C@](O)(c2cncc(OCC(C)(C)O)c2)C2(C)CN(C)C2)cc1` [Example 252] reads 6.62; that for `COC1CCC(Oc2cncc([C@@](O)(c3ccc(C(C)C)cc3)C3(C)CN(C)C3)c2)C1` (stereo partly shown) [Example 253], 7.88; that for `CC(C)c1ccc([C@](O)(c2cncc(OCc3nc(C4CC4)no3)c2)C2(C)CN(C)C2)cc1` [Example 254], 7.71.
Turning to `Cc1nc(C)n(CCOc2cncc([C@@](O)(c3ccc(C(C)C)cc3)C3(C)CN(C)C3)c2)n1` [Example 255], the pIC50 was 6.11.
Regarding `CC(C)c1ccc([C@](O)(c2cncc(OCCC(C)(C)O)c2)C2(C)CN(C)C2)cc1` [Example 256], the pIC50 was 7.24.
With `COc1cncc([C@@](O)(c2ccc(C(C)C)cc2)C2(C)CN(C)C2)c1` [Example 257], the pIC50 is 7.06.
Same read-out and setting: then `CC(C)c1ccc([C@](O)(c2cncc(OCCOCc3ccccc3)c2)C2(C)CN(C)C2)cc1` [Example 258], with 7.81; and `CC(C)c1ccc([C@](O)(c2cncc(OC3CCOCC3)c2)C2(C)CN(C)C2)cc1` [Example 259], with 7.25; and `CC(C)c1ccc([C@](O)(c2cncc(OCCO)c2)C2(C)CN(C)C2)cc1` [Example 260, 2-{5-[(R)-(1,3-Dimethyl-azetidin-3-yl)-hydroxy-(4-isopropyl-phenyl)-methyl]-pyridin-3-yloxy}-ethanol], with 6.49.
Consider `CC(C)c1ccc([C@](O)(c2cncc(OC3CCC(O)CC3)c2)C2(C)CN(C)C2)cc1` (stereo partly drawn) [Example 261, 4-{5-[(R)-(1,3-Dimethyl-azetidin-3-yl)-hydroxy-(4-isopropyl-phenyl)-methyl]-pyridin-3-yloxy}-cyclohexanol], for which the pIC50 was 6.69.
With `CC(C)c1ccc([C@](O)(c2cncc(OC3CCC(C)(O)CC3)c2)C2(C)CN(C)C2)cc1` (stereo partly drawn) [Example 262, 4-{5-[(R)-(1,3-Dimethyl-azetidin-3-yl)-hydroxy-(4-isopropyl-phenyl)-methyl]-pyridin-3-yloxy}-1-methyl-cyclohexanol], the pIC50 was 7.14.
On to `CN1CC(C)(C(O)(c2ccc(OC(F)(F)F)cc2)c2cnc(Oc3ccccc3)nc2)C1` (stereo not shown) [Example 263], for which the pIC50 was 6.79.
Regarding `CN1CC(C)(C(O)(c2ccc(OC(F)(F)F)cc2)c2ccc(OCc3ccccc3)nc2)C1` (stereo not shown) [Example 264], the pIC50 is 6.78.
Turning to `CN1CC(C)(C(O)(c2ccc(OC(F)(F)F)cc2)c2cncc(-n3cccn3)c2)C1` (stereo not shown) [Example 265], the pIC50 is 7.04.
On to `CN1CC(C)(C(O)(c2ccc(OC(F)(F)F)cc2)c2cnc(F)c(N3CCCC3)c2)C1` (stereo not shown) [Example 266, (1,3-Dimethyl-azetidin-3-yl)-(6-fluoro-5-pyrrolidin-1-yl-pyridin-3-yl)-(4-trifluoromethoxy-phenyl)-methanol], for which the pIC50 is 7.10.
Take `CN1CC(C)(C(O)(c2ccc(OC(F)(F)F)cc2)c2cnc(C#N)c(N3CCCC3)c2)C1` (stereo not shown) [Example 267, 5-[(1,3-Dimethyl-azetidin-3-yl)-hydroxy-(4-trifluoromethoxy-phenyl)-methyl]-3-pyrrolidin-1-yl-pyridine-2-carbonitrile]: the negative logarithm of the IC50 (pIC50) is 6.99.
On to `CN1CC(C)(C(O)(c2ccc(OC(F)(F)F)cc2)c2ccc(OC3CCOCC3)nc2)C1` (stereo not shown) [Example 268, (1,3-Dimethyl-azetidin-3-yl)-[6-(tetrahydro-pyran-4-yloxy)-pyridin-3-yl]-(4-trifluoromethoxy-phenyl)-methanol], for which the pIC50 was 7.00.
Still for that read-out and setting: then `CN1CC(C)(C(O)(c2ccc(OC(F)(F)F)cc2)c2ccc(OCC3COC3)nc2)C1` (stereo not shown) [Example 269, (1,3-Dimethyl-azetidin-3-yl)-[6-(oxetan-3-ylmethoxy)-pyridin-3-yl]-(4-trifluoromethoxy-phenyl)-methanol], with 6.65; and `Cc1csc(-c2cncc(C(O)(c3ccc(C(C)C)cc3)C3(C)CN(C)C3)c2)n1` (stereo not shown) [Example 270, (1,3-Dimethyl-azetidin-3-yl)-(4-isopropyl-phenyl)-[5-(4-methyl-thiazol-2-yl)-pyridin-3-yl]-methanol], with 7.56.
On the same count and under the same terms, the result for `Cc1cnc(-c2cncc(C(O)(c3ccc(C(C)C)cc3)C3(C)CN(C)C3)c2)s1` (stereo not shown) [Example 271, (1,3-Dimethyl-azetidin-3-yl)-(4-isopropyl-phenyl)-[5-(5-methyl-thiazol-2-yl)-pyridin-3-yl]-methanol] reads 7.44.

(Values after US12617773B2, “Azetidin-3-ylmethanol derivatives as CCR6 receptor modulators” (Idorsia Pharmaceuticals Ltd, priority 2020, dated 2026).)
